Nine compounds from patent US20260159520A1, “HETEROBIFUNCTIONAL COMPOUNDS AND METHODS OF TREATING DISEASE” (Halda Therapeutics OpCo, Inc., priority 2022, published 2026) can be followed below.

The subject of test [1] is T-Rex 293 cell line SC cells having increased expression of progesterone receptor isoform B protein. Briefly: Cellular growth inhibition, T-Rex 293 SC cells with doxycycline (increased progesterone receptor isoform B expression). Format: cell-based. The note with it: with 10 ng/mL doxycycline (increased progesterone receptor isoform B), 72 hours, CellTiter-Glo 2.0. (ATP-based viability assays read luminescence as a measure of living cells.)

For a further test, the target named is T1, androgen receptor (Homo sapiens, UniProt P10275).
T1 construct: endogenous in cells; host or cells: unnamed cells (cytosol fraction)
T1 sequence (P10275 1-920): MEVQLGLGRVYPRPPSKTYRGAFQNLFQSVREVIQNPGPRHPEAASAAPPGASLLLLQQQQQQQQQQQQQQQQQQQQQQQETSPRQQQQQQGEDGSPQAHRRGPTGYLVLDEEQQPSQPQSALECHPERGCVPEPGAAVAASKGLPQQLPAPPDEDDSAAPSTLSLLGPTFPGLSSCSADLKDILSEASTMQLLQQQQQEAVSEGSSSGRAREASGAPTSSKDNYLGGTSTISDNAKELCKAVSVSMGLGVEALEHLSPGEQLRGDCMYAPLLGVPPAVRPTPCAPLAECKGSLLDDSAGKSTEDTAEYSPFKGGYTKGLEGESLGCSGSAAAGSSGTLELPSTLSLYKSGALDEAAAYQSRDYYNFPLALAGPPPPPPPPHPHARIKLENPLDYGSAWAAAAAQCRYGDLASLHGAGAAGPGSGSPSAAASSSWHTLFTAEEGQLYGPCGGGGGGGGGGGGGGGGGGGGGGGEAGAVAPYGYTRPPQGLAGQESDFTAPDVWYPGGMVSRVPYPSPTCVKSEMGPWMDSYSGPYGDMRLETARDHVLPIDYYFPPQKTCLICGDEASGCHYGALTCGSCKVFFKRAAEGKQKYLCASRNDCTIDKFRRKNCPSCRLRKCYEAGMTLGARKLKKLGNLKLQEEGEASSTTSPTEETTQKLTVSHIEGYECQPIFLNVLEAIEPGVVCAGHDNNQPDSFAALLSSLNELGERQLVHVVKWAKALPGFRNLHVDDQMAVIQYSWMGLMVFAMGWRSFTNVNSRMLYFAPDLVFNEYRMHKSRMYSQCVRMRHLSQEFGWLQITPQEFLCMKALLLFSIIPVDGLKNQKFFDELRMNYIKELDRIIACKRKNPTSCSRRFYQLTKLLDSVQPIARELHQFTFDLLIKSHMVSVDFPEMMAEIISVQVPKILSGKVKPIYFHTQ
Briefly: Binding affinity to androgen receptor ([3H]methyltrienolone radioligand, cell cytosol). The note with it: Table 6. The procedure:
Fractions of cell cytosol ([…]) were incubated for 24 hr at 4° C. with 1 nM [^3H]methyltrienolone in the absence or presence of the test compound in a buffer containing 25 mM Hepes-Tris (pH 7.4), 1 mM EDTA, 10 mM Na2MoO4, 2 mM DTT, 5 μM triamcinolone acetonide, and 10% glycerol. Nonspecific binding was determined in the presence of 1 μM testosterone. Following incubation, the samples were filtered rapidly under vacuum through glass fiber filters (GF/B, Packard) presoaked with 0.3% PEI and rinsed several times with ice-cold 50 mM Tris-HCl using a 96-sample cell harvester (Unifilter, Packard). The filters were dried then counted for radioactivity in a scintillation counter (Topcount, Packard) using a scintillation cocktail (Microscint 0, Packard). The results are expressed as a percent inhibition of the control radioligand specific binding. The standard reference compound is testosterone, which is tested in each experiment at several concentrations to obtain a competition curve from which its IC50 is calculated.

Test [2] has as its system T-Rex 293 cell line SC cells lacking increased expression of progesterone receptor isoform B protein. As to the kind of experiment: Cellular growth inhibition, T-Rex 293 SC cells without doxycycline. Format: cell-based. The note with it: not exposed to doxycycline, 72 hours, CellTiter-Glo 2.0.

Each structure is given as a SMILES string.

The term GI50 denotes the concentration at which growth is held to half of that of the control. High values mean lower sensitivity of the cells, low ones greater sensitivity of the cells. By Kd is commonly meant the equilibrium constant for the complex coming apart. Take `CCc1cnn2c(NCc3ccc(=O)n(CCOCCOCCOCCOCCOCCOCCN(C)c4ncc(C(=O)N[C@H]5C(C)(C)[C@H](Oc6ccc(C#N)c(Cl)c6)C5(C)C)cn4)c3)cc(N3CCCC[C@H]3CCO)nc12` [Compound I-4, N-((1r,3r)-3-(3-chloro-4-cyanophenoxy)-2,2,4,4-tetramethylcyclobutyl)-2-((20-(5-(((3-ethyl-5-((S)-2-(2-hydroxyethyl)piperidin-1-yl)pyrazolo[1,5-a]pyrimidin-7-yl)amino)methyl)-2-oxopyridin-1(2H)-yl)-3,6,9,12,15,18-hexaoxaicosyl)(methyl)amino)pyrimidine-5-carboxamide]: the GI50 in test [1] and in test [2] was < 500 nM throughout. The dissociation constant Kd at androgen receptor is < 50 nM.

As to `CCc1cnn2c(NCc3ccc(OCCOCCOCCOCCOCCOCCOCCN(C)c4ncc(C(=O)N[C@H]5C(C)(C)[C@H](Oc6ccc(C#N)c(Cl)c6)C5(C)C)cn4)nc3)cc(N3CCCC[C@H]3CCO)nc12` [Compound I-5], the values for the GI50 in test [1] and in test [2] were < 500 nM and 500 to 1500 nM, respectively. Moreover, on androgen receptor, the dissociation constant (Kd) is < 50 nM.

In the case of `CCc1cnn2c(NCc3ccc(OCCOC4CCN(c5ncc(C(=O)N[C@H]6C(C)(C)[C@H](Oc7ccc(C#N)c(Cl)c7)C6(C)C)cn5)CC4)nc3)cc(N3CCCC[C@H]3CCO)nc12` [Compound I-7, N-((1r,3r)-3-(3-chloro-4-cyanophenoxy)-2,2,4,4-tetramethylcyclobutyl)-2-(4-(2-((5-(((3-ethyl-5-((S)-2-(2-hydroxyethyl)piperidin-1-yl)pyrazolo[1,5-a]pyrimidin-7-yl)amino)methyl)pyridin-2-yl)oxy)ethoxy)piperidin-1-yl)pyrimidine-5-carboxamide], the concentration for 50% growth inhibition (GI50) in test [1] and in test [2] was < 500 nM each time. Besides, the equilibrium dissociation constant (Kd) at androgen receptor is < 50 nM.

In the case of `CCc1cnn2c(NCc3ccc(OCCOCCOCCOC4CCN(c5ncc(C(=O)N[C@H]6C(C)(C)[C@H](Oc7ccc(C#N)c(Cl)c7)C6(C)C)cn5)CC4)nc3)cc(N3CCCC[C@H]3CCO)nc12` [Compound I-8], the GI50 in test [1] and in test [2] was < 500 nM in each case. The Kd at androgen receptor was < 50 nM.

For `CC1(C)[C@H](NC(=O)c2cnc(N3CCC(OCCNS(=O)(=O)c4ccc(Nc5ncc(Br)c(Nc6cccc(F)c6C(N)=O)n5)cc4)CC3)nc2)C(C)(C)[C@H]1Oc1ccc(C#N)c(Cl)c1` [Compound I-13, 2-(4-(2-((4-((5-bromo-4-((2-carbamoyl-3-fluorophenyl)amino)pyrimidin-2-yl)amino)phenyl)sulfonamido)ethoxy)piperidin-1-yl)-N-((1 r,3r)-3-(3-chloro-4-cyanophenoxy)-2,2,4,4-tetramethylcyclobutyl)pyrimidine-5-carboxamide], the GI50 in test [1] and in test [2] was > 3000 nM throughout. For the same compound, the equilibrium dissociation constant (Kd) on androgen receptor was < 50 nM.

For the compound `CCc1cnn2c(NCc3ccc(COCCN4CCN(CC5CCN(c6ncc(C(=O)N[C@H]7C(C)(C)[C@H](Oc8ccc(C#N)c(Cl)c8)C7(C)C)cn6)CC5)CC4)nc3)cc(N3CCCC[C@H]3CCO)nc12` [Compound I-42], the GI50 in test [1] and in test [2] was < 500 nM throughout. Besides, the Kd at androgen receptor was < 50 nM.

Take `CCc1cnn2c(NCc3ccc(OCCOCCOCCOC4CCN(c5ccc(C(=O)N[C@H]6C(C)(C)[C@H](Oc7ccc(C#N)c(Cl)c7)C6(C)C)nn5)CC4)nc3)cc(N3CCCC[C@H]3CCO)nc12` [Compound I-44, N-((1r,3r)-3-(3-chloro-4-cyanophenoxy)-2,2,4,4-tetramethylcyclobutyl)-6-(4-(2-(2-(2-((5-(((3-ethyl-5-((S)-2-(2-hydroxyethyl)piperidin-1-yl)pyrazolo[1,5-a]pyrimidin-7-yl)amino)methyl)pyridin-2-yl)oxy)ethoxy)ethoxy)ethoxy)piperidin-1-yl)pyridazine-3-carboxamide]: the GI50 in test [1] and in test [2] was < 500 nM throughout. For the same compound, the dissociation constant Kd on androgen receptor is 50 to 500 nM.

With `CCc1cnn2c(NCc3ccc(OCCCN4CCN(CC5CCN(c6ccc(C(=O)N[C@H]7C(C)(C)[C@H](Oc8ccc(C#N)c(Cl)c8)C7(C)C)cn6)CC5)CC4)nc3)cc(N3CCCC[C@@H]3CCO)nc12` [Compound I-55, N-((1r,3r)-3-(3-chloro-4-cyanophenoxy)-2,2,4,4-tetramethylcyclobutyl)-6-(4-((4-(3-((5-(((3-ethyl-5-((R)-2-(2-hydroxyethyl)piperidin-1-yl)pyrazolo[1,5-a]pyrimidin-7-yl)amino)methyl)pyridin-2-yl)oxy)propyl)piperazin-1-yl)methyl)piperidin-1-yl)nicotinamide], the 50% growth inhibitory concentration (GI50) in test [1] and in test [2] was < 500 nM each time. Further, the Kd on androgen receptor is < 50 nM.

As for `CCc1cnn2c(NCc3ccc(OCCCN4CCN(CC5CCN(c6ccc(C(=O)N[C@H]7C(C)(C)[C@H](Oc8ccc(C#N)c(Cl)c8)C7(C)C)cc6)CC5)CC4)nc3)cc(N3CCCC[C@@H]3CCO)nc12` [II-1, N-((1r,3r)-3-(3-chloro-4-cyanophenoxy)-2,2,4,4-tetramethylcyclobutyl)-4-(4-((4-(3-((5-(((3-ethyl-5-((R)-2-(2-hydroxyethyl)piperidin-1-yl)pyrazolo[1,5-a]pyrimidin-7-yl)amino)methyl)pyridin-2-yl)oxy)propyl)piperazin-1-yl)methyl)piperidin-1-yl)benzamide], the GI50 in test [1] and in test [2] was < 500 nM each time. Further, the dissociation constant (Kd) at androgen receptor was < 50 nM.
